From ChEMBL document CHEMBL5465560, “Selectivity Literature for EUbOPEN Chemogenomic Library” (2024)
Values belong to the compound of their own block, whether it stands above or below them.

What was measured:
[1] = target: Serine/threonine-protein kinase Nek4 (Homo sapiens) (UniProt P51957); test: Selectivity interaction (Kinase panel (Z-LYTE Assay)) EUB0001632a NEK4; conditions: at 10 µM
[2] = target: L-type calcium channel Cav1.2 (CACNA1C) (Homo sapiens, UniProt Q13936); test: Selectivity interaction (Panel of kinases, GPCRs, ion channels and transporters (enzymatic assay)) EUB0000266bCl CACNA1C
[3] = target: Serine/threonine-protein kinase MARK1 (Homo sapiens) (UniProt Q9P0L2); conditions: at 10 µM
Insulin receptor = Insulin receptor (Homo sapiens, UniProt P06213); test: Selectivity interaction (ActivX KiNativ screen (kinase selectivity in THP-1 cell lysates)) EUB0000639a INSR; format: subcellular; conditions: lysate
Insulin receptor, sequence (P06213 28-758 limits assumed): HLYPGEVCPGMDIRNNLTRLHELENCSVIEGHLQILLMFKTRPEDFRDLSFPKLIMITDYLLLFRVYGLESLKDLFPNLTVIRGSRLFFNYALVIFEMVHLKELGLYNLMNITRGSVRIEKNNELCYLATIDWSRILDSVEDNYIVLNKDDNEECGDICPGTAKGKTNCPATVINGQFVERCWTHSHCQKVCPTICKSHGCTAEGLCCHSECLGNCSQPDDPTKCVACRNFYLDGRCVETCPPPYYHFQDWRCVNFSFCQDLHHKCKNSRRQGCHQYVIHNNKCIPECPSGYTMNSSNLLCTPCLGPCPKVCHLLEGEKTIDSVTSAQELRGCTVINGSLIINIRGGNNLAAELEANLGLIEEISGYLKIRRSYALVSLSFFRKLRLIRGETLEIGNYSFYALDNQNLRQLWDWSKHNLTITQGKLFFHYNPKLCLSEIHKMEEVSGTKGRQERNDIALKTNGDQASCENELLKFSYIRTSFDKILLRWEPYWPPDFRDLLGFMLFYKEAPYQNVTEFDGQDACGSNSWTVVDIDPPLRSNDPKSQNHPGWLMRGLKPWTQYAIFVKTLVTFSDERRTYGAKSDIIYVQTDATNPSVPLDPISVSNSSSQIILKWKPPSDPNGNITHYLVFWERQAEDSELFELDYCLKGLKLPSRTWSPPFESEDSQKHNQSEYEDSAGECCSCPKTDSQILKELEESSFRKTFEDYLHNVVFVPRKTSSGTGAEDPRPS
Insulin receptor, sequence (P06213 763-1382 limits assumed): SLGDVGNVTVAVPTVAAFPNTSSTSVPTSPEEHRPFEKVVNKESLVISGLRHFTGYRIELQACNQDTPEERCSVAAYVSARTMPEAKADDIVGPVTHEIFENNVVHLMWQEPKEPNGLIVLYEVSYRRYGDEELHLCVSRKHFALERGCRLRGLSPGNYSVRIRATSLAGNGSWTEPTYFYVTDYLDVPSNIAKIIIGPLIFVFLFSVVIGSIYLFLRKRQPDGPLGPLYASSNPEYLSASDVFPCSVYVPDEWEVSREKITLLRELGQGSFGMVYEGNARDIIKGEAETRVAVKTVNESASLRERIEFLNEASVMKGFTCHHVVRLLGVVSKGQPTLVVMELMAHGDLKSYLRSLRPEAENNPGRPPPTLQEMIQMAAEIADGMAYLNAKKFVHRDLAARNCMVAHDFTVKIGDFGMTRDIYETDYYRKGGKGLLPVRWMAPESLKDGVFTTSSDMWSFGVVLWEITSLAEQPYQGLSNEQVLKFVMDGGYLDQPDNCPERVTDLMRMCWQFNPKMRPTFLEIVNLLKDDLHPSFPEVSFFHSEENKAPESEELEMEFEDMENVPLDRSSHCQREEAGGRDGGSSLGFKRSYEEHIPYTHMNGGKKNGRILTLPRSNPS

[4] = target: Tyrosine-protein kinase JAK1 (Homo sapiens, UniProt P23458); test: Selectivity interaction (KinomeScan (DiscoverX)) EUB0001049a JAK1; conditions: at 1 µM
[5] = target: T1, Myotonin-protein kinase (Homo sapiens) (UniProt Q09013); test: Selectivity interaction (KinomeScan (DiscoverX)) EUB0001049a DMPK; conditions: at 1 µM
T1 sequence (whole entry): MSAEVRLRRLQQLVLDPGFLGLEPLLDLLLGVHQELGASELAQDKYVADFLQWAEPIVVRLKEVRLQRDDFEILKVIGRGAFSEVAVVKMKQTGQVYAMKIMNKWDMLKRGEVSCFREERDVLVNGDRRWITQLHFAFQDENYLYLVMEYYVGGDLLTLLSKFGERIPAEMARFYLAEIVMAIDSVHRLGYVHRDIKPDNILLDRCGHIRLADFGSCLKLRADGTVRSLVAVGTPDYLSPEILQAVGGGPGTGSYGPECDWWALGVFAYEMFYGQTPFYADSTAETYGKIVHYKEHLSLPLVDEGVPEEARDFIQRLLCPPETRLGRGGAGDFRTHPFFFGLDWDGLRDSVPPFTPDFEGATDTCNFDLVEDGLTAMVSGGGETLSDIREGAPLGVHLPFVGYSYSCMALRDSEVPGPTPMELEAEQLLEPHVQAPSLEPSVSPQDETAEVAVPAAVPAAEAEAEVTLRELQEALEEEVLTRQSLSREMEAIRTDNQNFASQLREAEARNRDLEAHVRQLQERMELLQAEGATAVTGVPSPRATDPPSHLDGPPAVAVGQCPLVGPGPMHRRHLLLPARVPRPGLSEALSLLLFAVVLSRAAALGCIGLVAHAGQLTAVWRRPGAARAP

[6] = target: Mitogen-activated protein kinase 7 (Homo sapiens) (UniProt Q13164); test: Selectivity interaction (KinomeScan (DiscoverX)) EUB0000655a MAPK7; conditions: at 10 µM
[7] = system: Epidermal growth factor receptor (Homo sapiens), P00533 [L861Q]; test: (§1) Selectivity interaction (KinomeScan (DiscoverX)) EUB0001079a EGFR; conditions: at 1 µM
[8] = system: Epidermal growth factor receptor (Homo sapiens), P00533 [G719S]; test: as §1; conditions: at 1 µM
[9] = target: Epidermal growth factor receptor (Homo sapiens, UniProt P00533); test: as §1; conditions: at 1 µM
[10] = system: Epidermal growth factor receptor (Homo sapiens), P00533 [T790M]; test: as §1; conditions: at 1 µM
Epidermal growth factor receptor (Homo sapiens), P00533 [T790M], sequence (P00533 whole entry T790M): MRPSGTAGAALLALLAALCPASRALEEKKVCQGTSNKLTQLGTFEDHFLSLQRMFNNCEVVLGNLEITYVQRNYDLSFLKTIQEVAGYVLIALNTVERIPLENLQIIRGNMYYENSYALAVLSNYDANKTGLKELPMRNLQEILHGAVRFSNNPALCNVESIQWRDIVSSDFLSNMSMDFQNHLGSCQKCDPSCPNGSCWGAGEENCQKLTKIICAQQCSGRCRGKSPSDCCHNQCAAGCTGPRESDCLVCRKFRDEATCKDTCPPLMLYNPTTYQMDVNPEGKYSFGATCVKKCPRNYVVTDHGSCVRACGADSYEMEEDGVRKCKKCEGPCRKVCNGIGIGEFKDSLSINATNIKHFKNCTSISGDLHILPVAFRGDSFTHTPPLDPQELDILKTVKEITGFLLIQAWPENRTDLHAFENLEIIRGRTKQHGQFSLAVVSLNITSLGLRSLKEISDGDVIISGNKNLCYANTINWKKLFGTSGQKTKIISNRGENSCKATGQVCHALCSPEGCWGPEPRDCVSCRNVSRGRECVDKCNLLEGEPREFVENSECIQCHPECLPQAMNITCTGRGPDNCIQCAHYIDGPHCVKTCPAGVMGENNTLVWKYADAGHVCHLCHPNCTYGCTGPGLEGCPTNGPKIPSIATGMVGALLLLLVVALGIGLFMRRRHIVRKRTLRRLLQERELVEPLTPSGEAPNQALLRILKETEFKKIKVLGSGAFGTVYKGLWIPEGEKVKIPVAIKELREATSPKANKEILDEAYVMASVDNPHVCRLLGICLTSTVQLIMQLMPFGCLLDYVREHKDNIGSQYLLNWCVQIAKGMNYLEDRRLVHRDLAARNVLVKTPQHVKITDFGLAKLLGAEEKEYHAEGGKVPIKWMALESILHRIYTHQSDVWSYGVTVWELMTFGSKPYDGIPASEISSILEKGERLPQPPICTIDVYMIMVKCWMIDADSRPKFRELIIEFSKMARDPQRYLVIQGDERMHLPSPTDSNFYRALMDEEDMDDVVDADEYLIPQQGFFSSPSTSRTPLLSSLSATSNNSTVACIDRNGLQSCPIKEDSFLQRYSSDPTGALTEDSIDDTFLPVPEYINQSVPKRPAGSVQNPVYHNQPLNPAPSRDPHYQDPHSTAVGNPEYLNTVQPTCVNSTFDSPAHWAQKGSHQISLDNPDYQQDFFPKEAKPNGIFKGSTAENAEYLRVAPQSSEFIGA

[11] = system: Epidermal growth factor receptor (Homo sapiens), P00533 [UNDEFINED MUTATION]; test: as §1; conditions: at 1 µM
[12] = system: Epidermal growth factor receptor (Homo sapiens), P00533 [L858R]; test: as §1; conditions: at 1 µM
[13] = system: Epidermal growth factor receptor (Homo sapiens), P00533 [L858R,T790M]; test: as §1; conditions: at 1 µM
[14] = system: Epidermal growth factor receptor (Homo sapiens), P00533 [G719C]; test: as §1; conditions: at 1 µM
Epidermal growth factor receptor (Homo sapiens), P00533 [G719C], sequence (P00533 whole entry G719C): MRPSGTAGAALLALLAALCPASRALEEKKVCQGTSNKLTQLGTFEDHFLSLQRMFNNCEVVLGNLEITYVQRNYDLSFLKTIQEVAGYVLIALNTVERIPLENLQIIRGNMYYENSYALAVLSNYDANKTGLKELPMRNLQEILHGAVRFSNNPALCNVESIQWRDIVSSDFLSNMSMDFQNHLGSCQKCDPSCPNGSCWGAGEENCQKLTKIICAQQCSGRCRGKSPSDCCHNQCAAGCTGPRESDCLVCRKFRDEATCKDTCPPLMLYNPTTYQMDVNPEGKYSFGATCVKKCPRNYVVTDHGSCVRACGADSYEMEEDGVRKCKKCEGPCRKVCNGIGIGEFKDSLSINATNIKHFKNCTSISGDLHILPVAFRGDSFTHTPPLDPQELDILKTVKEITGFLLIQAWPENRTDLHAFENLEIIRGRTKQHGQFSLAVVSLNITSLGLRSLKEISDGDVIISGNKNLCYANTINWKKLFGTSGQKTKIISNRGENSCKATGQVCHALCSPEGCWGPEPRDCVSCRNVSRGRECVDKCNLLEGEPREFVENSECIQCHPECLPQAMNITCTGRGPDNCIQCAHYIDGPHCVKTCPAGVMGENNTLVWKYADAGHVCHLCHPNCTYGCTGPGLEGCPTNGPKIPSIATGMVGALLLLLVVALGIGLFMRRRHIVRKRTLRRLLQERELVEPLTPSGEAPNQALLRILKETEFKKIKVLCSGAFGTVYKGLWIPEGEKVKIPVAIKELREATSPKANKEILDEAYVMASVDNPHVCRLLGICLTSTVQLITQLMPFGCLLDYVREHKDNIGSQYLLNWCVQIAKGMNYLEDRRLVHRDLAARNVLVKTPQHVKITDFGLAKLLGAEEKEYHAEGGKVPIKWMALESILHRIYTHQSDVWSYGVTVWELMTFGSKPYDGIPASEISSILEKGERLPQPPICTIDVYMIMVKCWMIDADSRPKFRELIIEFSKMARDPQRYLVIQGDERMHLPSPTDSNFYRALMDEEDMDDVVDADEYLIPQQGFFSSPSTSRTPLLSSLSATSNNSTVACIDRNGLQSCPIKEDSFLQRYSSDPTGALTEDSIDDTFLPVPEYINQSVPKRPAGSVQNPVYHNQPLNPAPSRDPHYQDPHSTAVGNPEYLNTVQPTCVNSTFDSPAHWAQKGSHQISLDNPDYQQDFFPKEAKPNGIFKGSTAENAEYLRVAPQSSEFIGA

[15] = target: Tyrosine-protein kinase Srms (Homo sapiens) (UniProt Q9H3Y6); test: Selectivity interaction (KinomeScan (DiscoverX)) EUB0001079a SRMS; conditions: at 1 µM
[16] = target: Mitogen-activated protein kinase kinase kinase 11 (Homo sapiens) (UniProt Q16584); test: Selectivity interaction (KinomeScan (DiscoverX)) EUB0001079a MAP3K11; conditions: at 1 µM
[17] = target: Cyclin-dependent kinase 20 (Homo sapiens) (UniProt Q8IZL9); test: Selectivity interaction (Kinase panel (KiNativ target engagement assay in Jurkat cells)) EUB0001635a CDK20; format: cell-based; conditions: Selectivity number of off-targets 0.0, Selectivity number of targets 233.0, Source Knowledge https://www.sciencedirect.com/science/article/pii/S2451945619300674?via%3Dihub, at 1 µM
Cyclin-dependent kinase 20 (Homo sapiens), sequence (Q8IZL9 whole entry): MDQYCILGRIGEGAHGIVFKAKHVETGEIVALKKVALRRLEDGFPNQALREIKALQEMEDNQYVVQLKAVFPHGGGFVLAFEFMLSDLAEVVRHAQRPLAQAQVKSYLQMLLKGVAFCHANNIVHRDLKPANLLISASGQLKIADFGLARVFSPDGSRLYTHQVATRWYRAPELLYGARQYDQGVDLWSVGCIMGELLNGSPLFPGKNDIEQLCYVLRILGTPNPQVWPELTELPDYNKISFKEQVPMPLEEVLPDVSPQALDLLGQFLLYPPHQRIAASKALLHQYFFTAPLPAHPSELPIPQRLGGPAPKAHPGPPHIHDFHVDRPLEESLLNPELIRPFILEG

[18] = target: Maternal embryonic leucine zipper kinase (Homo sapiens) (UniProt Q14680); conditions: at 10 µM
Ephrin type-A receptor 4 = Ephrin type-A receptor 4 (Homo sapiens, UniProt P54764); conditions: at 10 µM
[19] = system: Serine/threonine-protein kinase B-raf (Homo sapiens), P15056 [V600E]; test: (§2) Selectivity interaction (KinomeScan (DiscoverX)) EUB0001619a BRAF; conditions: at 1 µM
[20] = target: Serine/threonine-protein kinase B-raf (Homo sapiens) (UniProt P15056); test: as §2; conditions: at 1 µM

Serine/threonine-protein kinase Nek4 (Homo sapiens), sequence (P51957 whole entry, looked up): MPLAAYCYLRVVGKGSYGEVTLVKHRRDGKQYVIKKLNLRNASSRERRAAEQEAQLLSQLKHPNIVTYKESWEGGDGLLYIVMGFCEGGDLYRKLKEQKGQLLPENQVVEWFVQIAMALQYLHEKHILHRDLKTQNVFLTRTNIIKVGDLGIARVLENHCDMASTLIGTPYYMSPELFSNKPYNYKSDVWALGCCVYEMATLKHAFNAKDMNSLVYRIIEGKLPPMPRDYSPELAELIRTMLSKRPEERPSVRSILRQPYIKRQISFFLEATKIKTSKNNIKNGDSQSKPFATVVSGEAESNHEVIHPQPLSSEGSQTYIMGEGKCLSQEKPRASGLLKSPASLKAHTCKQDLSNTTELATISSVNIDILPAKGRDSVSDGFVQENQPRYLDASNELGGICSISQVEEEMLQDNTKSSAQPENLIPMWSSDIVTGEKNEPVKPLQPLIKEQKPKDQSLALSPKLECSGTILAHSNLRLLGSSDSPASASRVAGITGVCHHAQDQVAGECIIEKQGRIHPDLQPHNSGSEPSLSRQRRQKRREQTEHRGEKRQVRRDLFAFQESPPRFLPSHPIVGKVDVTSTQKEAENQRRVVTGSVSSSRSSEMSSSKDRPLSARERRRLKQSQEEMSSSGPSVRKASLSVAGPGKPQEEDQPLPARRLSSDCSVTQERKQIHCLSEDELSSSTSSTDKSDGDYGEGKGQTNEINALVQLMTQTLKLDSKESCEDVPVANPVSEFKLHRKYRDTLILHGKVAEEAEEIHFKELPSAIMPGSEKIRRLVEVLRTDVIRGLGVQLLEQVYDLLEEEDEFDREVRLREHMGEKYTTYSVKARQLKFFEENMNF

- % of control [1]: 0.309%
SMILES: Cn1cc(-n2cnc3c(NCc4nc5cc(Cl)c(Cl)cc5[nH]4)nc(N4CCOCC4)nc32)cn1

SMILES: CCn1c(-c2nc3cc(C(=O)N4CCCC(N)C4)ccc3n2C)cc2ccccc21 (stereo unspecified)
- XC50 [2]: > 15.8 µM

- % of control [3]: 100%
SMILES: CCN(CC)CCCCNc1ncc2cc(-c3cc(OC)cc(OC)c3)c(NC(=O)NC(C)(C)C)nc2n1

- % of inhibition (Insulin receptor; at 0.01 µM): -44.7%
- % of inhibition (Insulin receptor; at 0.04 µM): 10.7%
- % of inhibition (Insulin receptor; at 0.2 µM): -15.5%
- % of inhibition (Insulin receptor; at 1 µM): -21.5%
- % of inhibition (Insulin receptor; at 5 µM): -37.4%
SMILES: CC[C@@H]1[C@H](F)C(=O)N[C@@H]1COc1nccc2cc(C(N)=O)c(OC)cc12 [ZIMLOVISERTIB]

SMILES: COc1cc(Nc2nc(C)cc(-c3cnn4nc(OC)ccc34)n2)cc(C(F)(F)F)c1
- % of control [4]: 85%
- % of control [5]: 100%

SMILES: CN(C)CCOc1ccc(-c2nc(-c3ccncc3)c(-c3ccc4c(c3)CC/C4=N\O)[nH]2)cc1
- % of control [6]: 97%

SMILES: Nc1cnc(N2CCc3cc(S(=O)(=O)Nc4c(F)cc(Cl)cc4F)cc(N4CCCC4=O)c32)nc1 [TP-020n]
- % of control [7]: 100%
- % of control [8]: 75%
- % of control [9]: 82%
- % of control [10]: 88%
- % of control [11]: 74%
- % of control [12]: 85%
- % of control [13]: 77%
- % of control [14]: 100%
- % of control [15]: 88%
- % of control [16]: 100%

SMILES: C=CC(=O)Nc1ccc(C(=O)Nc2[nH]nc3c2CN(C(=O)N[C@H](CN(C)C)c2ccccc2)C3(C)C)cc1
- % of engagement [17]: 4.7%

SMILES: Cc1cc([C@@H](C)Nc2ccccc2C(=O)O)c2nc(N3CCOCC3)cc(=O)n2c1 [AZD-6482]
- % of control [18]: 100%
- % of control (Ephrin type-A receptor 4): 93%

SMILES: N#Cc1cccc(-c2c[nH]c3ncnc(N4CCOCC4)c23)c1
- % of control [19]: 69%
- % of control [20]: 80%
